From paper PMC1764755, “Human antimicrobial peptide LL-37 is present in atherosclerotic plaques and induces death of vascular smooth muscle cells: a laboratory study” (BMC Cardiovascular Disorders, 2006)

Legend:
Assay type in all cases: cell-based
[1] = test system: rat aorta smooth muscle cells; experiment: Microscopy of cultured cells (Nomarski, DAPI, FITC-annexin V); details: for morphological changes: serum free DMEM
Description: Rat aorta smooth muscle cells were grown on methanol-cleansed coverslips in 6-well plates and incubated for 2 or 5 h in serum free DMEM with/without LL-37 (10 or 30 μg/ml) or camptothecin (5 μg/ml, Sigma-Aldrich). After culture, the coverslips were washed with ice-cold PBS containing 1 mM Ca^2+ and the cells were then stained at room temperature for 20 min with FITC-annexin V (20 μg/ml, Roche Molecular Biochemicals, Mannheim, Germany) and 4'6-diamino-2-phenyliondole dihydrochloride (DAPI) nucleic acid stain (100 nM, Molecular probes, Eugene, OR, USA). Thereafter, the cells were fixed with 1 % paraformaldehyde (Becton Dickinson, Bedford MA, U.S.A) in ice-cold PBS containing 1 mM Ca^2+. Fixation was initiated on ice for 15 min and continued at room temperature for 45 min. Cover slips were then mounted using ProLong AntiFade Reagent (Molecular Probes). Visual inspection and recording of images was performed using a Nikon Eclipse TE300 inverted fluorescence microscope equipped with a Hamamatsu C4742-95 cooled CCD camera, using a Plan Apochromat 60 × objective.

[2] = test system: rat aorta smooth muscle cells; experiment: Flow cytometry, FITC-annexin V / propidium iodide; details: LL-37 30 μg/ml
Description: Rat aorta smooth muscle cells were harvested from culture plates using trypsin/EDTA and washed in PBS once followed by a 2-h incubation in bicarbonate free MEM at 37°C using gentle end-over-end rotation. […] Staining was performed for 20 min on ice with FITC-annexin V (30 μg/ml) and propidium iodide (30 μg/ml, BD Pharmingen, San Diego, CA, USA) in calcium-containing PBS. Fluorescence-activated cell sorter (FACS) analysis was performed immediately (Becton Dickinson FACS Calibur instrument). 10,000 cells/sample were counted, and results were evaluated by using the Cell Quest software (Becton Dickinson). The same protocol was used for staining of human neutrophils incubated with LL-37 (30 μg/ml) for 30 or 120 min.

[3] = test system: rat aorta smooth muscle cells; experiment: LDH release assay; details: LL-37 30 μg/ml, 1, 3 and 7 h, n = 7, P < 0.05
Description: Confluent rat aorta smooth muscle cells cultured on 24-well plates were incubated for 1, 3, or 7 h in serum free DMEM in the absence (control) or presence of LL-37 (10 or 30 μg/ml). The lactate dehydrogenase (LDH) activity released into the medium was measured by using the in vitro toxicology assay kit (Tox-7, Sigma-Aldrich) according to the manufacturer's instructions. In short, the medium was centrifuged at 2000 × g for 4 min. The LDH in the supernatants converted a tetrazolium dye, which was measured spectrophotometrically at 490 nm. The LDH activity is expressed as % of total LDH activity of lysed cells.

[4] = test system: caspase-3 activity in rat aorta smooth muscle cells; experiment: Caspase-3 activity (fluorometric immunosorbent enzyme assay, FIENA); details: LL-37 30 μg/ml, 1, 3 and 7 h, corrected for intact cells, n = 6, P < 0.05
Description: Confluent rat aorta smooth muscle cells cultured on 24-well plates were incubated for 1, 3 or 7 h in serum free DMEM in the absence (control) or presence of LL-37 (10 or 30 μg/ml). The caspase-3 activity was measured by using a fluorometric immunosorbent enzyme assay (FIENA, Roche Molecular Biochemicals) according to the manufacturer's instructions. Briefly, the caspase-3 from cellular lysates was captured by immobilized monoclonal anti-caspase-3 antibodies followed by addition of a substrate that is cleaved by caspase-3 generating a fluorescent compound. Fluorescence was then measured at 400 nm excitation and 505 nm emission. […] The caspase-3 activity values were therefore corrected in order to correspond to the fraction of intact cells using the formula […]
Where VIC is the caspase-3 activity of intact cells, VC is the caspase-3 activity of the sample, VL is the LDH activity of the sample and VLT is the total LDH activity of lysed cells. The caspase-3 activity is expressed as % of untreated controls.

human neutrophils = experiment: Flow cytometry, FITC-annexin V / propidium iodide; details: LL-37 30 μg/ml, 30 and 120 minutes, not shown
Description: Human neutrophils were isolated from heparinized blood from healthy donors using the Polymorph isolation kit (Nycomed Pharma AS Diagnostics, Oslo, Norway). Following the manufacturer's instructions, whole blood was layered carefully on neutrophil isolation medium and centrifuged at 400 × g for 30 min at room temperature. After centrifugation the following fractions were apparent: mononuclear cells, neutrophils and erythrocyte pellet. The polymorphonuclear leukocytes layer was suspended in PBS, followed by 10 min centrifugation at 350 × g; residual erythrocytes were removed by hypotonic lysis. After two washes in PBS with centrifugation for 5 min at 250 × g, the pellet was suspended in Minimum essential medium (MEM) and neutrophils were counted using a hemocytometer. The concentration of cells was adjusted to 10^7 cells/ml.
Rat aorta smooth muscle cells were harvested from culture plates using trypsin/EDTA and washed in PBS once followed by a 2-h incubation in bicarbonate free MEM at 37°C using gentle end-over-end rotation. […] Fluorescence-activated cell sorter (FACS) analysis was performed immediately (Becton Dickinson FACS Calibur instrument). 10,000 cells/sample were counted, and results were evaluated by using the Cell Quest software (Becton Dickinson). […]

[5] = test system: rat aorta smooth muscle cells; experiment: Internucleosomal DNA fragmentation (Cell Death Detection ELISA); details: 16 h, n = 7, P < 0.05
Description: (§1) Confluent rat or human aorta smooth muscle cells cultured on 24-well plates were incubated in serum free DMEM for 16 h in the absence (control) or presence of LL-37 (10 and 30 μg/ml). Internucleosomal DNA fragmentation was measured using a Cell Death Detection ELISA Kit (Roche Molecular Biochemicals) according to the manufacturer's instructions. In short, the cells were lysed in the culture wells and the DNA fragments in the lysate were bound to a microtiter plate coated with monoclonal anti-histone antibodies. The bound DNA fragments were then detected by peroxidase-conjugated monoclonal anti-DNA antibodies and 2,2'-azino-di- [3-ethylbenzthiazoline sulfonate]. Optical density was measured at 415 nm and is expressed as % of untreated controls.

[6] = test system: human aortic smooth muscle cells; experiment: as above; details: LL-37 30 μg/ml, 16 h, n = 7, P < 0.05
Description: as §1

Structure (SMILES) | cellular changes compared with those induced by LL-37 (30 μg/ml) ([1]; camptothecin 5 μg/ml, not shown) | increase in the propidium iodide fluorescence signal of the necrotic cells [2] | increase in FITC-annexin V fluorescence ([2]; 10 to 180 minutes) [fold] | leftmost peak of FITC-annexin V fluorescence histogram ([2]; 10 minutes) | leftmost peak of FITC-annexin V fluorescence histogram ([2]; 180 minutes) [units] | increase in propidium iodide staining of the viable cells ([2]; within 10 minutes) [fold] | morphological changes ([1]; LL-37 10 μg/ml, not shown) | FITC-annexin V binding of plasma membrane (microscopy) ([1]; LL-37 30 μg/ml, 2 or 5 h) | nuclear appearance (DAPI stain) ([1]; LL-37 30 μg/ml, 2 or 5 h) | morphological changes ([1]; LL-37 30 μg/ml, 2 or 5 h) | release of LDH into medium versus control [3] | caspase-3 activity versus untreated controls [4] | staining with propidium iodide and FITC-annexin V (human neutrophils) | DNA fragmentation compared to controls ([5]; LL-37 10 μg/ml) | DNA fragmentation compared to controls ([5]; LL-37 30 μg/ml) | DNA fragmentation compared to controls [6]
CC[C@@]1(O)C(=O)OCc2c1cc1n(c2=O)Cc2cc3ccccc3nc2-1 [camptothecin] | similar | – | – | – | – | – | – | – | – | – | – | – | – | – | – | –
CC[C@H](C)[C@H](NC(=O)[C@H](CCCCN)NC(=O)[C@H](CCC(=O)O)NC(=O)[C@H](CCCCN)NC(=O)[C@H](CO)NC(=O)[C@H](CCCCN)NC(=O)[C@H](CCCNC(=N)N)NC(=O)[C@H](Cc1ccccc1)NC(=O)[C@H](Cc1ccccc1)NC(=O)[C@H](CC(=O)O)NC(=O)CNC(=O)[C@H](CC(C)C)NC(=O)[C@@H](N)CC(C)C)C(=O)NCC(=O)N[C@@H](CCCCN)C(=O)N[C@@H](CCC(=O)O)C(=O)N[C@@H](Cc1ccccc1)C(=O)N[C@@H](CCCCN)C(=O)N[C@@H](CCCNC(=N)N)C(=O)N[C@H](C(=O)N[C@H](C(=O)N[C@@H](CCC(N)=O)C(=O)N[C@@H](CCCNC(=N)N)C(=O)N[C@H](C(=O)N[C@@H](CCCCN)C(=O)N[C@@H](CC(=O)O)C(=O)N[C@@H](Cc1ccccc1)C(=O)N[C@@H](CC(C)C)C(=O)N[C@@H](CCCNC(=N)N)C(=O)N[C@@H](CC(N)=O)C(=O)N[C@@H](CC(C)C)C(=O)N[C@H](C(=O)N1CCC[C@H]1C(=O)N[C@@H](CCCNC(=N)N)C(=O)N[C@H](C(=O)N[C@@H](CCC(=O)O)C(=O)N[C@@H](CO)C(=O)O)[C@@H](C)O)C(C)C)[C@@H](C)CC)C(C)C)[C@@H](C)CC [LL-37] | – | about 1000 fold | 15 | about 2 fluorescence units | ~30 | 10 | only small and inconsistent morphological changes | bound FITC-annexin V | nuclei of most cells appeared smaller with fragmented chromatin | progressive cell shrinkage and a rough appearance of the cell membrane | significantly increased | significant increase | weak staining | statistically significant DNA fragmentation | statistically significant DNA fragmentation | statistically significant DNA fragmentation
